These molecules were tested against His-Tagged hOGA (Homo sapiens (Human), UniProt O60502) (assay: Human O-GlcNAcase enzyme inhibition assay). Conditions: FL-GlcNAc substrate, 60 min at room temperature, pH 6.5; read-out: OGA IC50.
Assay type: biochemical
Experimental: Example B01: Human O-GlcNAcase Enzyme Inhibition Assay
5 μl of the appropriate concentration of a solution of inhibitor in Mcllvaine's Buffer (pH 6.5) in 2% DMSO (for a dose response curve calculation) is added into each well of a 384-well plate (Greiner, 781900). Then, 20 nM of His-Tagged hOGA and 10 μM of FL-GlcNAc (Fluorescein mono-beta-D-(2-deoxy-2-N-acetyl) glucopyranoside; Marker Gene Technologies Inc, M1485) were added to the 384-well plate for a final volume of 20 μl. After incubation for 60 min at room temperature, the reaction was terminated by the addition of 10 μL of stop buffer (200 mM glycine, pH 10.75).

His-Tagged hOGA, sequence (O60502 whole entry): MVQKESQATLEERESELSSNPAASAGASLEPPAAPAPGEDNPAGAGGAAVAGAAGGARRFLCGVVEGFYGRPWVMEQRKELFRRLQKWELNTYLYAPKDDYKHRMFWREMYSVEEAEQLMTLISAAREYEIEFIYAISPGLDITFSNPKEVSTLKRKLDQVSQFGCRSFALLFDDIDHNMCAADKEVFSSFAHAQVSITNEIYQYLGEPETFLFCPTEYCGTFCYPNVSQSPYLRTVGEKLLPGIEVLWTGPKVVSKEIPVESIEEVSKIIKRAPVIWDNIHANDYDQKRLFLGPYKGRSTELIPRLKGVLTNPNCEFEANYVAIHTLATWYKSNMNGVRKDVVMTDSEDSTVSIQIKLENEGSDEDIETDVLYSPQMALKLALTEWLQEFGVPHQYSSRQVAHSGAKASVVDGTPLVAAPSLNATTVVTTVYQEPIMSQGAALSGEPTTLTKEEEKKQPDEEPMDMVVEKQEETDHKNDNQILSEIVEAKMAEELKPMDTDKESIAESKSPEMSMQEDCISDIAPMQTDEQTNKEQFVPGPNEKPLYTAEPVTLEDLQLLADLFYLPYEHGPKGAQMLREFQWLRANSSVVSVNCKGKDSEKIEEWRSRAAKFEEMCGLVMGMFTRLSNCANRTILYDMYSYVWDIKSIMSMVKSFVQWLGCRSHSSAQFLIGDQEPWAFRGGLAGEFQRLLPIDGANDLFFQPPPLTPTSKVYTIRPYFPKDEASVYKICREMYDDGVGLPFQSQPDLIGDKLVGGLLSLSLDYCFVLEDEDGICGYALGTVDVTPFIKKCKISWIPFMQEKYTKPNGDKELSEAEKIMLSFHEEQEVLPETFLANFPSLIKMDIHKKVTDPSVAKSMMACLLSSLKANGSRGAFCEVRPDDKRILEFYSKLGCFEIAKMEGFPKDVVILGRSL

Compound	IC50 [nM]
CC(=O)Nc1nnc(N2CCN(C(C)c3ccc4c(c3)OC(C)(C)C4)CC2)s1 (racemic) [Example 4, N-(5-(4-(1-(2,2-dimethyl-2,3-dihydrobenzofuran-6-yl)ethyl)piperazin-1-yl)-1,3,4-thiadiazol-2-yl)acetamide]	1000 to 10000
CC(c1ccc2c(c1)OC(C)(C)C2)N1CCN(c2ncc(S(C)(=N)=O)cn2)CC1 (racemic) [Example 5, (2-(4-(1-(2,2-dimethyl-2,3-dihydrobenzofuran-6-yl)ethyl)piperazin-1-yl)pyrimidin-5-yl)(imino)(methyl)-λ^6-sulfanone]	1000 to 10000
CC(c1ccc2c(c1)OC(C)(C)C2)N1CCN(c2ncc3c(n2)CCNC3=O)CC1 (racemic) [Example 6, 2-(4-(1-(2,2-dimethyl-2,3-dihydrobenzofuran-6-yl)ethyl)piperazin-1-yl)-7,8-dihydropyrido[4,3-d]pyrimidin-5(6H)-one]	1000 to 10000
CC(=O)Nc1nnc(N2CCN(C(C)c3cnc4c(c3)OC(C)C4)CC2)s1 (racemic) [Example 8, N-(5-(4-(1-(2-methyl-2,3-dihydrofuro[3,2-b]pyridin-6-yl)ethyl)piperazin-1-yl)-1,3,4-thiadiazol-2-yl)acetamide]	200 to 1000
CC(=O)Nc1nnc(N2CCN(C(C)c3ccc4c(c3)O[C@H](C)C4)CC2)s1 (single isomer, unassigned) [Example 11]	200 to 1000
CC(=O)Nc1nnc(N2CCN(C(C)c3ccc4c(c3)O[C@@H](C)C4)CC2)s1 (single isomer, unassigned) [Example 16]	200 to 1000
CC(=O)Nc1nnc(N2CCN(C(C)c3ccc4c(c3)O[C@@H](C)C4)CC2)s1 (single isomer, unassigned) [Example 17]	50 to 200
CC(c1ccc2c(c1)O[C@@H](C)C2)N1CCN(c2ncc3c(n2)CCNC3=O)CC1 (single isomer, unassigned) [Example 18, 2-(4-((S)-1-((S)-2-methyl-2,3-dihydrobenzofuran-6-yl)ethyl)piperazin-1-yl)-7,8-dihydropyrido[4,3-d]pyrimidin-5(6H)-one or 2-(4-((R)-1-((S)-2-methyl-2,3-dihydrobenzofuran-6-yl)ethyl)piperazin-1-yl)-7,8-dihydropyrido[4,3-d]pyrimidin-5(6H)-one]	50 to 200
CC(=O)Nc1nnc(N2CCN(C(C)c3ccc4c(c3)O[C@@H](C)C4)CC2)s1 (stereo partly drawn) [Example 14, N-(5-(4-(1-((S)-2-methyl-2,3-dihydrobenzofuran-6-yl)ethyl)piperazin-1-yl)-1,3,4-thiadiazol-2-yl)acetamide]	200 to 1000
CC(c1ccc2c(c1)O[C@@H](C)C2)N1CCN(c2ncc3c(n2)CCNC3=O)CC1 (stereo partly drawn) [Example 15, 2-(4-(1-((S)-2-methyl-2,3-dihydrobenzofuran-6-yl)ethyl)piperazin-1-yl)-7,8-dihydropyrido[4,3-d]pyrimidin-5(6H)-one]	200 to 1000
CC(c1ccc2c(c1)O[C@H](C)C2)N1CCN(c2n[nH]c(=O)s2)CC1 (stereo partly drawn) [Example 21, 5-(4-(1-((R)-2-methyl-2,3-dihydrobenzofuran-6-yl)ethyl)piperazin-1-yl)-1,3,4-thiadiazol-2(3H)-one]	50 to 200

The remaining lines, values ahead:

IC50 [nM]	Compound
< 50	CC(=O)Nc1nnc(N2CCN(C(C)c3ccc4c(c3)OC(C)C4)CC2)s1 (racemic) [Example 1, N-(5-(4-(1-(2-methyl-2,3-dihydrobenzofuran-6-yl)ethyl)piperazin-1-yl)-1,3,4-thiadiazol-2-yl)acetamide]
< 50	CC1Cc2ccc(C(C)N3CCN(c4ncc5c(n4)CCNC5=O)CC3)cc2O1 (racemic) [Example 2, 2-(4-(1-(2-methyl-2,3-dihydrobenzofuran-6-yl)ethyl)piperazin-1-yl)-7,8-dihydropyrido[4,3-d]pyrimidin-5(6H)-one]
< 50	CC1Cc2ccc(C(C)N3CCN(c4ncc(S(C)(=N)=O)cn4)CC3)cc2O1 (racemic) [Example 3, Imino(methyl)(2-(4-(1-(2-methyl-2,3-dihydrobenzofuran-6-yl)ethyl)piperazin-1-yl)pyrimidin-5-yl)-λ^6-sulfanone]
50 to 200	CC1Cc2ccc(C(C)N3CCN(c4ccc(S(C)(=O)=O)cc4)CC3)cc2O1 (racemic) [Example 7, 1-(1-(2-methyl-2,3-dihydrobenzofuran-6-yl)ethyl)-4-(4-(methylsulfonyl)phenyl)piperazine]
< 50	CC(=O)Nc1nnc(N2CCN(C(C)c3ccc4c(c3)O[C@H](C)C4)CC2)s1 (single isomer, unassigned) [Example 12]
< 50	CC(c1ccc2c(c1)O[C@H](C)C2)N1CCN(c2ncc3c(n2)CCNC3=O)CC1 (single isomer, unassigned) [Example 13, 2-(4-((S)-1-((R)-2-methyl-2,3-dihydrobenzofuran-6-yl)ethyl)piperazin-1-yl)-7,8-dihydropyrido[4,3-d]pyrimidin-5(6H)-one or 2-(4-((R)-1-((R)-2-methyl-2,3-dihydrobenzofuran-6-yl)ethyl)piperazin-1-yl)-7,8-dihydropyrido[4,3-d]pyrimidin-5(6H)-one]
< 50	CC(=O)Nc1nnc(N2CCN(C(C)c3ccc4c(c3)O[C@H](C)C4)CC2)s1 (stereo partly drawn) [Example 9, N-(5-(4-(1-((R)-2-methyl-2,3-dihydrobenzofuran-6-yl)ethyl)piperazin-1-yl)-1,3,4-thiadiazol-2-yl)acetamide]
< 50	CC(c1ccc2c(c1)O[C@H](C)C2)N1CCN(c2ncc3c(n2)CCNC3=O)CC1 (stereo partly drawn) [Example 10, 2-(4-(1-((R)-2-methyl-2,3-dihydrobenzofuran-6-yl)ethyl)piperazin-1-yl)-7,8-dihydropyrido[4,3-d]pyrimidin-5(6H)-one]
< 50	CC(c1ccc2c(c1)O[C@H](C)C2)N1CCN(c2ncc(S(C)(=O)=O)cn2)CC1 (stereo partly drawn) [Example 19, 2-(4-(1-((R)-2-methyl-2,3-dihydrobenzofuran-6-yl)ethyl)piperazin-1-yl)-5-(methylsulfonyl)pyrimidine]
< 50	CC(c1ccc2c(c1)O[C@H](C)C2)N1CCN(c2ncc(S(C)(=N)=O)cn2)CC1 (stereo partly drawn) [Example 20, imino(methyl)(2-(4-(1-((R)-2-methyl-2,3-dihydrobenzofuran-6-yl)ethyl)piperazin-1-yl)pyrimidin-5-yl)-λ^6-sulfanone]
